From patent US20240393292A1, “ALLERGY ANTIGEN AND EPITOPE THEREOF” (HOYU CO., LTD., priority 2019, published 2024)

System: IgE antibodies from patients
Experiment: Wheat epitope mapping (2): overlapping 10-amino-acid peptide fragments shifted by one amino acid;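 on epitope sequence binding to IgE antibody, rank (Key/Preferably/More preferably): key of grades: preferably = shorter partial sequence still acting as epitope; more preferably = sequence improving IgE binding; key = particularly important sequence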
Type: binding, human
Conditions: for Epitope sequence binding to IgE antibody, rank of the sequence (Key/Preferably/More preferably) / Epitope sequence binding to IgE antibody, rank of the sequence (Key/Preferably/More preferably/Further preferably): sequence without X; for Epitope sequence binding to IgE antibody, rank of the sequence (Key/Preferably/More preferably/Further preferably): serum of patient P50 (child, general immediate type allergy to wheat)
Summary of the method: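 Residual binding was banded as <30% none, 30–<50% poor, 50–<70% somewhat poor and ≥70% retained, relative to the parent overlapping sequence set to 100%. Values were chemiluminescent IgE signals from patient sera after subtracting secondary-antibody-only controls. The peptides were spot-synthesised 10-mers shifted by one amino acid.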

[1] = serum of patient P52 (child, general immediate type allergy to wheat)
[2] = serum of patient P53 (child, general immediate type allergy to wheat)

1951 (QFPGQQQ; REGION 1..7: note = epitope) [compound 1951]
epitope sequence binding to IgE antibody, rank (Key/Preferably/More preferably) (serum of patient P24 (WDEIA)): Preferably

1952 (QFPGQQ; REGION 1..6: note = epitope) [compound 1952]
epitope sequence binding to IgE antibody, rank (Key/Preferably/More preferably) (serum of patient P24 (WDEIA)): Key

1954 (QQFPGQQ; REGION 1..7: note = epitope) [compound 1954]
epitope sequence binding to IgE antibody, rank (Key/Preferably/More preferably) (serum of patient P26 (WDEIA)): Preferably

1955 (QFPGQ; REGION 1..5: note = epitope) [compound 1955]
epitope sequence binding to IgE antibody, rank (Key/Preferably/More preferably) (serum of patient P26 (WDEIA)): Key

1958 (QQFPGQQQ; REGION 1..8: note = epitope) [compound 1958]
epitope sequence binding to IgE antibody, rank (Key/Preferably/More preferably) (serum of patient P28 (WDEIA)): More preferably

1959 (QFPGQQ; REGION 1..6: note = epitope) [compound 1959]
epitope sequence binding to IgE antibody, rank (Key/Preferably/More preferably) (serum of patient P28 (WDEIA)): Preferably

1961 (QQQQFPGQQ; REGION 1..9: note = epitope) [compound 1961]
epitope sequence binding to IgE antibody, rank (Key/Preferably/More preferably) (serum of patient P32 (WDEIA)): Preferably

1962 (QQQFPGQQ; REGION 1..8: note = epitope) [compound 1962]
epitope sequence binding to IgE antibody, rank (Key/Preferably/More preferably) (serum of patient P32 (WDEIA)): Key

1964 (QQQFPGQQ; REGION 1..8: note = epitope) [compound 1964]
epitope sequence binding to IgE antibody, rank (Key/Preferably/More preferably) (serum of patient P33 (WDEIA)): More preferably

1965 (QQFPGQQ; REGION 1..7: note = epitope) [compound 1965]
epitope sequence binding to IgE antibody, rank (Key/Preferably/More preferably) (serum of patient P33 (WDEIA)): Preferably

1966 (QFPGQQ; REGION 1..6: note = epitope) [compound 1966]
epitope sequence binding to IgE antibody, rank (Key/Preferably/More preferably) (serum of patient P33 (WDEIA)): Key

1967 (VPLVQQQ; REGION 1..7: note = epitope) [compound 1967]
epitope sequence binding to IgE antibody, rank (Key/Preferably/More preferably) (serum of patient P34 (WDEIA)): Key

1968 (QFPGQQ; REGION 1..6: note = epitope) [compound 1968]
epitope sequence binding to IgE antibody, rank (Key/Preferably/More preferably) (serum of patient P34 (WDEIA)): Key

2219 (IRNYRVAI; REGION 1..8: note = epitope) [compound 2219]
Epitope sequence binding to IgE antibody, rank of the sequence (Key/Preferably/More preferably) (serum of patient P2 (WDEIA)): Preferably

2220 (NYRV; REGION 1..4: note = epitope) [compound 2220]
Epitope sequence binding to IgE antibody, rank of the sequence (Key/Preferably/More preferably) (serum of patient P2 (WDEIA)): Key

2221 (IRNYR; REGION 1..5: note = epitope) [compound 2221]
Epitope sequence binding to IgE antibody, rank of the sequence (Key/Preferably/More preferably) (serum of patient P7 (WDEIA)): Key

2222 (RLLRGIRNY; REGION 1..9: note = epitope) [compound 2222]
Epitope sequence binding to IgE antibody, rank of the sequence (Key/Preferably/More preferably) (serum of patient P8 (WDEIA)): Key

2223 (IRNYRVA; REGION 1..7: note = epitope) [compound 2223]
Epitope sequence binding to IgE antibody, rank of the sequence (Key/Preferably/More preferably) (serum of patient P8 (WDEIA)): Key

2224 (IRNYRVA; REGION 1..7: note = epitope) [compound 2224]
Epitope sequence binding to IgE antibody, rank of the sequence (Key/Preferably/More preferably) (serum of patient P16 (WDEIA)): Key

2225 (VSRLLRGIRN; REGION 1..10: note = epitope) [compound 2225]
Epitope sequence binding to IgE antibody, rank of the sequence (Key/Preferably/More preferably) (serum of patient P17 (WDEIA)): Key

2226 (RNYR; REGION 1..4: note = epitope) [compound 2226]
Epitope sequence binding to IgE antibody, rank of the sequence (Key/Preferably/More preferably) (serum of patient P17 (WDEIA)): Key

2227 (LLRGIRN; REGION 1..7: note = epitope) [compound 2227]
Epitope sequence binding to IgE antibody, rank of the sequence (Key/Preferably/More preferably) (serum of patient P18 (WDEIA)): Key

2228 (NYRVAI; REGION 1..6: note = epitope) [compound 2228]
Epitope sequence binding to IgE antibody, rank of the sequence (Key/Preferably/More preferably) (serum of patient P18 (WDEIA)): Key

2230 (IRNYRV; REGION 1..6: note = epitope) [compound 2230]
Epitope sequence binding to IgE antibody, rank of the sequence (Key/Preferably/More preferably) (serum of patient P21 (WDEIA)): Key

2231 (IRNY; REGION 1..4: note = epitope) [compound 2231]
Epitope sequence binding to IgE antibody, rank of the sequence (Key/Preferably/More preferably) (serum of patient P28 (WDEIA)): Key

2233 (IRNYRVAI; REGION 1..8: note = epitope) [compound 2233]
Epitope sequence binding to IgE antibody, rank of the sequence (Key/Preferably/More preferably) (serum of patient P29 (WDEIA)): Preferably

2234 (RNYR; REGION 1..4: note = epitope) [compound 2234]
Epitope sequence binding to IgE antibody, rank of the sequence (Key/Preferably/More preferably) (serum of patient P29 (WDEIA)): Key

2235 (SRLLRGIRN; REGION 1..9: note = epitope) [compound 2235]
Epitope sequence binding to IgE antibody, rank of the sequence (Key/Preferably/More preferably) (serum of patient P30 (WDEIA)): Key

2236 (IRNYRVAI; REGION 1..8: note = epitope) [compound 2236]
Epitope sequence binding to IgE antibody, rank of the sequence (Key/Preferably/More preferably) (serum of patient P30 (WDEIA)): Preferably

2237 (NYRV; REGION 1..4: note = epitope) [compound 2237]
Epitope sequence binding to IgE antibody, rank of the sequence (Key/Preferably/More preferably) (serum of patient P30 (WDEIA)): Key

2238 (LLRGIRNYRV; REGION 1..10: note = epitope) [compound 2238]
Epitope sequence binding to IgE antibody, rank of the sequence (Key/Preferably/More preferably) (serum of patient P31 (WDEIA)): Key

2239 (NYRVAI; REGION 1..6: note = epitope) [compound 2239]
Epitope sequence binding to IgE antibody, rank of the sequence (Key/Preferably/More preferably) (serum of patient P31 (WDEIA)): Key

2240 (IRNYRVAI; REGION 1..8: note = epitope) [compound 2240]
Epitope sequence binding to IgE antibody, rank of the sequence (Key/Preferably/More preferably) (serum of patient P32 (WDEIA)): Key

2241 (RLLRGIRN; REGION 1..8: note = epitope) [compound 2241]
Epitope sequence binding to IgE antibody, rank of the sequence (Key/Preferably/More preferably) (serum of patient P34 (WDEIA)): Key

2242 (IRNYRVAI; REGION 1..8: note = epitope) [compound 2242]
Epitope sequence binding to IgE antibody, rank of the sequence (Key/Preferably/More preferably) (serum of patient P35 (WDEIA)): Key

2243 (RLLRGIRNY; REGION 1..9: note = epitope) [compound 2243]
Epitope sequence binding to IgE antibody, rank of the sequence (Key/Preferably/More preferably) (serum of patient P36 (WDEIA)): Key

2244 (RNYRVA; REGION 1..6: note = epitope) [compound 2244]
Epitope sequence binding to IgE antibody, rank of the sequence (Key/Preferably/More preferably) (serum of patient P36 (WDEIA)): Key

2245 (SRLLRGIR; REGION 1..8: note = epitope) [compound 2245]
Epitope sequence binding to IgE antibody, rank of the sequence (Key/Preferably/More preferably/Further preferably): Preferably

2246 (SRLLR; REGION 1..5: note = epitope) [compound 2246]
Epitope sequence binding to IgE antibody, rank of the sequence (Key/Preferably/More preferably/Further preferably): Key

2247 (LLRGIRNYRV; REGION 1..10: note = epitope) [compound 2247]
Epitope sequence binding to IgE antibody, rank of the sequence (Key/Preferably/More preferably/Further preferably): Key

2248 (IRNYRVAI; REGION 1..8: note = epitope) [compound 2248]
Epitope sequence binding to IgE antibody, rank of the sequence (Key/Preferably/More preferably/Further preferably): Key

2250 (SRLLRGIRN; REGION 1..9: note = epitope) [compound 2250]
Epitope sequence binding to IgE antibody, rank of the sequence (Key/Preferably/More preferably) [1]: Preferably

2251 (SRLLRGIR; REGION 1..8: note = epitope) [compound 2251]
Epitope sequence binding to IgE antibody, rank of the sequence (Key/Preferably/More preferably) [1]: Key

2252 (LLRGIRNYRV; REGION 1..10: note = epitope) [compound 2252]
Epitope sequence binding to IgE antibody, rank of the sequence (Key/Preferably/More preferably) [1]: More preferably

2253 (RNYRVAI; REGION 1..7: note = epitope) [compound 2253]
Epitope sequence binding to IgE antibody, rank of the sequence (Key/Preferably/More preferably) [1]: Preferably

2254 (NYRV; REGION 1..4: note = epitope) [compound 2254]
Epitope sequence binding to IgE antibody, rank of the sequence (Key/Preferably/More preferably) [1]: Key

2255 (LLRGIRNYRV; REGION 1..10: note = epitope) [compound 2255]
Epitope sequence binding to IgE antibody, rank of the sequence (Key/Preferably/More preferably) [2]: Preferably

2256 (LRGIRN; REGION 1..6: note = epitope) [compound 2256]
Epitope sequence binding to IgE antibody, rank of the sequence (Key/Preferably/More preferably) [2]: Key
